This is an account of results in patent US5401733A, “Stable and active metabolites of 1,25-dihydroxy-16-ene-cholecalciferol” (Hoffmann-La Roche Inc., priority 1993, dated 1995).

For one data set, the system named is hydroxylase enzymes. As to the kind of experiment: Metabolism in perfused rat kidneys. The format is in vitro ADME. As to conditions: rat kidney perfusion. Here is the method:
The compounds of formulas I and II were prepared by perfusing 1,25(OH)2 -16-ene-D3 in rat kidneys, extracting the perfusate and isolating the compounds of formulas I and II.
Crystalline 1,25(OH)2 -16-ene-D3 was synthesized as described in U.S. Pat. No. 5,087,619, which is herein incorporated by reference to the extent necessary to enable one of skill in the art to make this invention. Rat kidneys were perfused with the 1,25(OH)2 -16-ene-D3 as described in Am. J. Physiol. 1982, 243 E265-271 and in Biochemistry 1987, 26, 324-331. Cold 1,25(OH)2 -16-ene-D3 (400 nmoles) was introduced into 100 mL of perfusate and the kidney perfusion was continued for 8 hours. Lipid extraction of the final kidney perfusate was performed according to the procedure described in Can. J. Biochem. Physiol. 1959, 37, 911-917. Half of the bulk lipid extract from the final perfusate of about 100 mL was then subjected directly to high pressure liquid chromatography (HPLC) performed with a Waters Model 600 equipped with a Model 990 photo diode array detector (Waters Associates, Milford, MA). HPLC analysis was performed on the lipid extract obtained from 50 mL of perfusate under the following conditions: Zorbax-SIL column (25 cm×4.6 mm); Hexane: 2-propanol (90:10), Flow rate: 2 mL/minutes. A known amount of 25(S),26(OH)2 -D3 was added to the perfusate at the time of lipid extraction to assess extraction of vitamin D metabolites in general. Fractions of each individual metabolite from the first HPLC run was pooled and subjected to a second HPLC run using the same Zorbax-SIL column eluted with methylene chloride:2-propanol […]. Each metablite obtained from the second HPLC run was chromatographed twice using the first HPLC system. At this time, the purity of each metabolite was adequate for its structure identification process. A control perfusion was performed with cold 1,25(OH)2 -D3 in a similar fashion and the lipid extract of the final perfusate was analyzed using the same HPLC systems as above.

Another data set concerns HL-60 cells. As to the kind of experiment: Differentiation of HL-60 cells (NBT reduction), 4 days. The format is cell-based, human. The protocol:
Effect of 1,25(OH)2 -16-ene-24-oxo-D3 on the Morphological Differentiation of HL-60 Cells
Tissue culture medium used was RPMI-1640 (Gibco) supplemented with glutamine, antibiotics and 20% fetal bovine serum.
1,25(OH)2 -16-ene-D3 and 1,25(OH)2 -16-ene-24-oxo-D3 were dissolved in sufficient ethanol to yield stock solutions of 1 mM. Reduced lighting was used when working with the compounds and the stock solutions were stored in the dark at -20 C. in an argon atmosphere. The stock solutions were added to flasks, which were supplemented with sufficient ethanol to achieve the final concentration of 0.1%.
A HL-60 tumor cell line was originally derived from a patient with promyelocytic leukemia and was obtained from the American Type Culture Collection (ATCC #CCL240). The cells were maintained in liquid cultures by serial passage twice weekly in the tissue culture medium. For each experimental point, cells were grown in replicate flasks. The cells were seeded at a rate of 10^6 cells per 25 cm^2 flask and grown in the presence of the compounds for a total of 4 days. Ethanol, used as the vehicle, was kept constant in all dilutions in each experiment and had no effect on the cell differentiation at the concentrations used […]. After 4 days of incubation at 37° C., cultures were evaluated for cell differentiation.
Quantitation of differentiated cells was done by the biochemical method of nitroblue tetrazolium reduction (NBT) reduction. A 1 ml aliquot of cell suspension was removed from each flask and centrifuged for 10 minutes, and resuspended in about 200 μl of a work solution. The work solution contained 100 ng of tetradecanoyl phorbol acetate per ml of NBT and was kept in a covered vial on ice. The NBT was prepared fresh on the day of enumeration to 1 mg/ml in growth medium. The cells were incubated in a 37° C. water bath for 30 minutes. An aliquot was placed into a hemocytometer and the total number of blue-black cells per approximately 200 cells was determined. The percentage of differentiated cells was then calculated.
The results are also shown as the concentration of compound which induced differentiation of 50% of the cells (ED50).

The subject of a further data set is human keratinocytes. As to the kind of experiment: Keratinocyte proliferation, assay 2 (KGM without calcium supplementation, 7 days). The format is cell-based. The conditions noted are these: assays 1 and 2 not distinguished. The protocol: Quantitation of Morphological Changes During Keratinocyte Proliferation Materials and Methods
Human neonatal foreskins were collected by circumcision and placed into tubes containing Dulbecco's Modified Eagle's Medium (DMEM) with 10% serum. On arrival at the laboratory, they were mechanically trimmed of excess dermis, and treated with a solution of trypsin/EDTA (0.05%/0.02%) at 4° C. overnight. The epidermis was stripped from the dermis, agitated in buffered saline containing soybean trypsin inhibitor to remove basal keratinocytes and the stratum cornea layer was removed. The separated cells were centrifuged, resuspended in the above media, counted, and the cells plated onto plastic culture dishes or plates at a density of 25,000 cells/cm^2 in keratinocyte growth media (KGM®-modified MCDB 153, Clonetics, Inc., Catalog #CC3001) according to protocols developed by Boyce and Ham (In Vitro Models for Cancer Research III, 246-274, 1986) for MCDB 153 media. The cultures were incubated in humidified chambers with 5% CO2 at 37° C. The cultures were refed with fresh media two to three times per week. Prior to reaching confluency the cells were replated (passage one) at 25,000 cells/well on 6-well cluster plates (Costar catalog #3506) in KGM.
1 milligram quantities were received in amber glass vials, and stored at -20° C. Sufficient 100% ethanol was added directly to the vials to obtain a millimolar solution that was subsequently aliquoted into small amber vials, overlayed with argon gas and stored at […] Each stock solution was thawed once, used and discarded. Aliquots from the stock solutions were diluted directly into medium and then serially diluted from micromolar to 10^-12 M concentrations. Dilutions from 10^-8 M to 10^-12 M had ethanol added for a final concentration of 0.1%. Stock solutions were used within one month. Control cultures were treated with 0.1% ethanol.
Approximately 24 hours after passage one, the cells were refed with fresh KGM supplemented to 1.5 mM CaCl2 (assay 1) containing the test compound. In a second assay (assay 2), the cells were grown in KGM without calcium supplementation to stimulate more proliferation and grown for 7 days instead of 5 days. Compounds were typically tested at 4 concentrations in triplicate wells. At the termination of the experiment, prior to the cultures reaching confluency, the cells were enumerated as follows. Dishes were rinsed with phosphate buffered saline, and then incubated with trysin/EDTA solution for 15 minutes. Cells were suspended, an aliquot placed into isotonic buffered saline and counted on an electronic particle counter (Coulter Counter). The counter was periodically calibrated for the correct size of keratinocytes. Each well was counted in triplicate. The number of cells per dish were calculated according to dilution factors used and results shown below in Table 3 are presented as percent inhibition obtained in control cultures.

Structures are written as SMILES.

For the molecule `C=C1/C(=C\C=C2/CCC[C@]3(C)C([C@H](C)CCC(O)C(C)(C)O)=CC[C@@H]23)C[C@@H](O)C[C@@H]1O` (stereo partly drawn) [1,24,25(OH)3-16-ene-D3, 1,24,25-trihydroxy-16-ene-cholecalciferol], the “resistance to further hydroxylation (in words)” value in the data set with hydroxylase enzymes is “resisted further hydroxylation from other hydroxylase enzymes”. In the data set with HL-60 cells, the “differentiation of HL-60 / human promyelocytic cells (in words)” value is on record as “stimulate differentiation of HL-60 cells”. In the data set with human keratinocytes, the “proliferation of human keratinocytes / skin cells (in words)” value is on record as “decrease proliferation of human keratinocytes”.
